Consider two molecules from patent publication US8071795B2, “HIF inhibitors” (Emory University, priority 2005, dated 2011).

One may read the IC50 as the concentration that inhibits the measured activity by half.

One data set concerns LN229 glioma xenograft. Nature of the data set: sc LN229 glioma xenograft growth. In kind it is in vivo, nude mice. The protocol: FIG. 20 illustrates that KCN1 inhibits sc LN229 glioma xenograft growth. LN-229 (5×10^6) was implanted in both flanks of nude mice (8/group) and 1 week later started intraperitoneal injections of KCN1 (60 mg/kg; 5 days/week). FIG. 20(A) illustrates tumor volume over time as measured with a caliper.
(§1) KCN1 was formulated in Cremaphor/EtOH for mice delivery and determined empirically (i.e., without prior under-standing of its in vivo pharmacology) whether preliminary anti-tumorigenic effects could be observed. […] (up to 100 mg/kg) injected animals.

Data set [1] deals with Akt (Serine 473 phosphorylation), PI3K signaling pathway. Briefly: Akt phosphorylation in response to IGF1. In kind it is cell-based. As to conditions: 1, 3, and 6 hrs. How it is done:
In addition, experiments focused on whether HIF present in the nucleus of the KCN1 and CoCl2 treated cells was transcriptionally active were performed. […] Third, an experiment focused on whether KCN1 might interfere with HIF synthesis through the PI3 kinase/Akt/mTOR pathway that controls mRNA translation was performed. The effects of KCN1 on the phosphorylation of Akt in response to growth factor IGF1 (insulin growth factor 1) were examined. […] This finding might have therapeutic implications independently of the activities of KCN1 on HIF.

The next data set has as its system topoisomerase II. Nature of the data set: kinetoplast DNA decatenation assay. In kind it is biochemical. The protocol: FIG. 15 illustrates that HIF inhibitor F2 (Psammaplin analogue) but not KCN1 inhibits topoisomerase II activity. Purified topo II activity with F2 or KCN1 was analyzed under normoxia using kDNA decatenation assay. To examine the activity, 1% agarose gel with ethidium bromide was used and it enabled to detect catenated kDNA and decatenated kDNA. In lanes 5 and 9, inhibition of topoisomerase II activity was detected as evidenced by the presence of catenated DNA.
Finally, an experiment focused on whether some of the HIF inhibitors might have an effect on topoisomerase function was performed. It has been reported in the literature that some HIF inhibitors may act via a topoisomerase-dependent mechanism (Rapisarda A et al 2004, Cancer Res 64-1475-82). KCN1 and psammaplin analogue F2 (FIG. 8) were tested and their inhibitory effect on topoisomerase II using a kinetoplast DNA decatenation assay (FIG. 15) was examined.

Data set [2] is described as follows: tolerability in injected animals. In kind it is in vivo. The conditions noted are these: it. and iv. (up to 100 mg/kg). The protocol:
as §1

Another data set has as its target HIF-1/HRE pathway. Nature of the data set: LN229-HRE-AP hypoxia-inducible alkaline phosphatase reporter bioassay. In kind it is cell-based, human. The protocol:
Genetically engineered LN229 cells (a human glioma cell line) which stably express the alkaline phosphatase reporter gene under the control of six copies of a hypoxia-responsive element was used to identify small-molecule inhibitors of the HIF-1/HRE pathway. The engineered LN229 cell line is disclosed in U.S. Provisional Patent Application No. 60/235,283, which is incorporated by reference in its entirety herein. Cells were seeded at 40,000 cells per well in 96-well plates. Compounds of interest with 2,2-dimethylbenzopyran motifs were added and the plates were incubated under hypoxia (1% O2, 5% CO2 and 94% N2) at 37° C. for 24 h. Cells were then washed with phosphate-buffered saline and incubated with p-nitrophenyl phosphate at 37° C. for 30 min. The reaction was terminated by adding 3 N NaOH and the plates were read for absorbance at 405 nm. The anti-HIF-1/HRE activity of each compound was quantified as the decrease of percentage of alkaline phosphatase (AP) activity compared to the untreated control cells. […]
To screen for small molecule HIF-1 pathway inhibitors, a cell-based assay was established by stably transfecting a glioma cell line with a hypoxia-inducible alkaline phosphatase (AlkPhos) expression vector (LN229-HRE-AP). Exposure of the cells to hypoxia (1% O2) induced reporter gene expression, which could be detected and quantitated by a […] reaction. […]

Data set [3] in a line: PK study in U87MG-EGFRvIII brain tumor model, HPLC. As to conditions: iv. 35 mg/kg; 6, 18 and 24 hrs. In kind it is in vivo, mice. How it is done:
FIG. 18 illustrates a PK study of KCN1 in a brain tumor model. FIG. 18(A) illustrates MRI of U87MG-EGFRvIII grown in mice brain. FIG. 18(B) illustrates the kinetics of KCN1 accumulation in normal and tumoral brain after iv. injection at 35 mg/kg.
The BBB may constitute an obstacle to drug delivery. To examine whether KCN1 would reside in the brain over a longer period of time and whether it would accumulate in higher amounts in the tumor versus normal brain we carried out a preliminary PK experiment. Nude mice carrying U87MG-EGFRvIII tumors were injected iv. with KCN1 and sacrificed at 6, 18 and 24 hrs. KCN1 concentration in the brain tumor and contra-lateral normal brain was performed by HPLC.

The next data set has as its system HIF-1 alpha mRNA. Nature of the data set: Northern blot of HIF-1 alpha mRNA. In kind it is cell-based. The conditions noted are these: with or without KCN1 treatment. How it is done: To examine whether KCN1 might interfere with mRNA synthesis or stability Northern blots were performed.
(§2) To gain insight into the possible mechanism of action of KCN1 a number of experiments listed below were performed. First, an experiment focused on whether KCN1 might block HIF at the mRNA or protein level was performed. To examine whether KCN1 might interfere with HIF-1 alpha mRNA synthesis or stability, Northern blots were performed. […] Second, an experiment focused on whether KCN1 might interfere with the ability of HIF to translocate to the nucleus was performed by examining its location by microscopy in LN229 cells. Under hypoxia KCN1 inhibits HIF accumulation, confirming the Western blot results and no HIF is seen in the nucleus or cytoplasm.

Data set [4] concerns phospho-proteins involved in key cell signaling pathways. Nature of the data set: multiplex Western (Kinexus) of phospho-proteins in LN229 cell extracts. In kind it is cell-based, human. As to conditions: 27 of 37 phospho-proteins. The protocol: (§3) FIG. 11 illustrates an analysis of specificity of KCN1. LN229 cells were pre-treated with KCN1 (25 uM) for 1 h and then put in 1% O2 for […]. Cell extracts were analyzed by Western blot for levels of total proteins (FIG. 11 (A)) and phospho-proteins by multiplex Western FIG. 11 (B)). It should be noted that a strong increase of HIF-1α levels under hypoxia is inhibited by KCN1.
(§4) The above extracts were further analyzed to detect changes in the activity states of key signal transduction proteins by multiplex Western (Kinexus). This method allows the simultaneous screening of 37 different phospho-proteins involved in key cell signaling pathways. […] KCN1 inhibits only HIF-1α under hypoxic conditions (FIG. 11 (C)).

Another data set deals with HIF-1α. Briefly: Western blot of total protein levels in LN229 cell extracts. In kind it is cell-based, human. The protocol: as §3, §4
In data set [5] the test system is HIF-dependent luciferase activity. Briefly: pharmacodynamic BLI study in LN229 HRE-luciferase glioma xenografts. In kind it is in vivo, mouse. The protocol: FIG. 19 illustrates a pharmacodynamic study of KCN1 in nu/nu mouse bearing LN229HRE-luci-ferase gliomas. KCN1 (2 mg) dissolved in DMSO was injected in the right hind tumor, and DMSO control in the left hind tumor. The mouse was injected with D-luciferin and imaged by BLI before FIG. 19 (C) and 5 & 28 hrs after injection. It should be noted strong reduction in HIF-dependent luciferase activity in right hind tumor at 5 hrs and partial recovery of HIF signaling after 28 hrs. (n=2).
It is well appreciated that the efficacy of anti-cancer agents in rodents is an imprecise predictor of the success of these drugs in clinical trials. Therefore, evaluating the molecular and mechanistic end points of drug treatment is an important complementary approach to early pre-clinical studies. With this in mind, we sought to determine whether our lead HIF-1 pathway inhibitor (KCN1) can reduce HIF activity in a glioma xenograft model. In a pilot study, we used a mouse bearing 4 xenografts of LN229 cells containing a stable HIF responsive luciferase reporter (size-matched medium sized tumors in the back and small ones in the front). The HIF-dependent luciferase activity in the tumors was detected by non-invasive BLI. As expected, the larger hind tumors produced the strongest luciferase signal, likely due to the increase in the hypoxic volume. […]

The subject of a further data set is HIF. Nature of the data set: microscopy of HIF location and HRE-luciferase activity in LN229 cells. In kind it is cell-based, human.
Description: To examine whether KCN1 might interfere with the ability of HIF to translocate to the nucleus, its location was examined by microscopy in LN229 cells containing a stably integrated HRE-luciferase reporter construct. Under hypoxia KCN1 inhibits HIF accumulation and no HIF is seen in the nucleus or cytoplasm. […] Measurement of HIF-induced luciferase activity (lower panel) confirms that HIF is transcriptionally active in the presence of KCN1 in the COCl2 treated cells.
as §2
In addition, experiments focused on whether HIF present in the nucleus of the KCN1 and CoCl2 treated cells was transcriptionally active were performed. […]

A short description of a further data set: experimental LogP. In kind it is physicochemical. The source says:
Four grams of KCN1 have been synthesized for initial PK and anti-tumor studies. FIG. 10 illustrates an illustrative embodiment of a method for forming KCN1.

On to `COc1ccc(S(=O)(=O)N(Cc2ccc3c(c2)C=CC(C)(C)O3)c2ccccc2)cc1OC` [KCN1], for which, in the data set on LN229 glioma xenograft (60 mg/kg intraperitoneal, 5 days/week, at termination), the “weight of dissected tumors, fold less than control” value was around 6 fold. Besides, the tumor growth result with LN229 glioma xenograft (Cremaphor/EtOH formulation) is “strong and sustained inhibition of tumor growth”. Moreover, in data set [1], the “IGF1-induced phosphorylation of Akt on Serine 473” value was “not inhibited” and the phospho-Akt level result was “increase in phospho-Akt is observed”. Further, the “topo II activity” value in the data set with topoisomerase II (5-25 uM) is given as “did not inhibit”. In data set [2], the toxicity result was “no apparent toxicity was observed”. This molecule gave an IC50 on HIF-1/HRE pathway (LN229-HRE-AP cells, hypoxia 1% O2) of around 4 µM. Also, the “inhibitory activity relative to initial HIF-inhibitor 85D5R” value in the data set with HIF-1/HRE pathway (SAR, modifications in regions I and II) is given as “improved acitivities”. The “distribution between brain tumor and contra-lateral normal brain” value in [3] is “preferentially accumulates in and is retained in the brain tumor”. Also, the “HIF-1alpha mRNA levels” value with HIF-1 alpha mRNA was “remained constant”. The “effects on phospho-proteins with detectable phosphorylation” value in [4] is recorded as below 1.5 fold. In addition, the “HIF-1α protein level under hypoxia” value with HIF-1α (LN229 cells, KCN1 25 uM, 1% O2, 5 hrs) is reported as “strong anti-HIF-1α activity is detected”. Also, the “stabilization of HIF-1alpha under normoxia” value with HIF-1α (induced by CoCl2, desferroxiamine or MG132) is “is not inhibited”. In addition, the “reduction of HIF-dependent luciferase activity in injected tumor” value in [5] (2 mg in DMSO intratumoral, 5 hrs) is reported as above 90%. Further, the “HIF-dependent luciferase activity in injected tumor” value in data set [5] (after 28 h) is on record as “recovered”. For the same molecule, in the data set with HIF (KCN1 and CoCl2 treated cells), the “luciferase activity of HRE-luciferase reporter” value is given as “remained active”. For the same molecule, the “nuclear accumulation of HIF” value with HIF (LN229 cells, CoCl2 conditions) is on record as “does not interfere with nuclear accumulation”. Besides, the “experimental LogP” value in “experimental LogP” was 3.9.

Take `COc1cc([C@@H]2c3cc4c(cc3[C@@H](O[C@@H]3O[C@@H]5CO[C@@H](C)O[C@H]5[C@H](O)[C@H]3O)[C@H]3COC(=O)[C@H]23)OCO4)cc(OC)c1O` [etoposide, reference compound]: the “topo II activity” value in the data set on topoisomerase II (100 uM) is listed as “inhibitory activity observed”.
